In patent US20260176320A1, “MODULATORS OF G-PROTEIN COUPLED RECEPTORS” (priority 2018, published 2026):
Where two headings read alike, the source gives them in different places.

How the values were obtained:
GLP-1R = GLP-1R (Homo sapiens, UniProt P43220); assay: HitHunter cAMP assay (GLP-1R); type: cell-based; conditions: for Emax: read-out: (Emax) GLP-1R
How it was run: (§1)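 Cells were resuspended in HBSS plus HEPES, IBMX (625 μM) and BSA, then dispensed with antibody at 10,000 per well. Agonists followed as 22-point twofold series, 30 min at room temperature. Antibody reagent and detection steps ran 1 h and overnight in the dark before luminescence.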

GIP-R = biological target: T1, GIP-R (Homo sapiens, UniProt P48546); assay: HitHunter cAMP assay (GIP-R); type: cell-based; conditions: for Emax: read-out: (Emax) GIP-R
T1 sequence (P48546 22-466): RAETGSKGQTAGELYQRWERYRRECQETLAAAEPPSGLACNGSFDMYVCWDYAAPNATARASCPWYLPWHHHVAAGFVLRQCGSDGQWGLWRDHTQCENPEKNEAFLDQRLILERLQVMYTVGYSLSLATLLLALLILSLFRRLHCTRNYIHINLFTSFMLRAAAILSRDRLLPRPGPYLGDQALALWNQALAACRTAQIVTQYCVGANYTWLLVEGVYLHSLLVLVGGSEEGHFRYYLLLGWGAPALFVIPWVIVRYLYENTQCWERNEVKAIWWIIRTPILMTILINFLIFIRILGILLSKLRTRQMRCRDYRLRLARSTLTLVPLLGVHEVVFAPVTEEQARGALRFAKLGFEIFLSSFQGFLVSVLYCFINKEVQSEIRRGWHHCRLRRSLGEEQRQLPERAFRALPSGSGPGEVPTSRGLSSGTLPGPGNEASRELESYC
How it was run: as §1

[1] = Table 3, cAMP, read-out: EC50 GLP-1R/nM
[2] = Table 3A, cAMP, read-out: EC50 GLP-1R/nM
[3] = Table 3, cAMP, read-out: EC50 GIP-R/nM
[4] = Table 3A, cAMP, read-out: EC50 GIP-R/nM

Chain of GLP-1R (P43220 24-463): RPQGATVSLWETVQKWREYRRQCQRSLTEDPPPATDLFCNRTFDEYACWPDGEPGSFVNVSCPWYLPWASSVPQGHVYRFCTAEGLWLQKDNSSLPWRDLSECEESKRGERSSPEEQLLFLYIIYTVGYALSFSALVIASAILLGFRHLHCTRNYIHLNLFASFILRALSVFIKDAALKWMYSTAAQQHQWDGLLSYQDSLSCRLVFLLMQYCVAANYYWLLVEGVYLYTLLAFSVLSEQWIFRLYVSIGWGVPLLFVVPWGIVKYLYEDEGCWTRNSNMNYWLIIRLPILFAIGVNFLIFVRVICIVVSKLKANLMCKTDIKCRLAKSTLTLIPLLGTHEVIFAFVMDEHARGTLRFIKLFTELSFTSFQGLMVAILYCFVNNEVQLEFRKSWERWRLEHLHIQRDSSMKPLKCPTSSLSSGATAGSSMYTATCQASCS

CC[C@H](C)[C@H](NC(=O)[C@H](CO)NC(=O)[C@H](Cc1ccc(O)cc1)NC(=O)[C@H](CC(=O)O)NC(=O)[C@H](CO)NC(=O)[C@@H](NC(=O)[C@H](Cc1ccccc1)NC(=O)[C@@H](NC(=O)CNC(=O)[C@H](CCC(=O)O)NC(=O)CSCC(=O)NCCn1ccc(C(F)(F)F)cc1=O)[C@@H](C)O)[C@@H](C)O)C(=O)N[C@@H](Cc1ccc(O)cc1)C(=O)N[C@@H](CC(C)C)C(=O)N[C@@H](CC(=O)O)C(=O)N[C@@H](CCCCN)C(=O)N[C@@H](CCC(N)=O)C(=O)N[C@@H](C)C(=O)N[C@@H](C)C(=O)NC(C)(C)C(=O)N[C@@H](CCC(=O)O)C(=O)N[C@@H](Cc1ccccc1)C(=O)N[C@H](C(=O)N[C@@H](CC(N)=O)C(=O)N[C@@H](Cc1c[nH]c2ccccc12)C(=O)N[C@@H](CC(C)C)C(=O)N[C@@H](CC(C)C)C(=O)N[C@@H](C)C(=O)NCC(=O)NCC(=O)N1CCC[C@H]1C(=O)N[C@@H](CO)C(=O)N[C@@H](CO)C(=O)NCC(=O)N[C@@H](C)C(=O)N1CCC[C@H]1C(=O)N1CCC[C@H]1C(=O)N1CCC[C@H]1C(=O)N[C@@H](CO)C(=O)N[C@@H](CCCCN)C(N)=O)C(C)C [Compound 121]
Emax (GLP-1R): 90%
Emax (GIP-R): 27%

CCCCCCCCCCCCCCCC(=O)N[C@@H](CCC(=O)NCCCC[C@H](NC(=O)[C@H](CO)NC(=O)[C@@H]1CCCN1C(=O)[C@@H]1CCCN1C(=O)[C@@H]1CCCN1C(=O)[C@H](C)NC(=O)CNC(=O)[C@H](CO)NC(=O)[C@H](CO)NC(=O)[C@@H]1CCCN1C(=O)CNC(=O)CNC(=O)[C@H](C)NC(=O)[C@H](CC(C)C)NC(=O)[C@H](CC(C)C)NC(=O)[C@H](Cc1c[nH]c2ccccc12)NC(=O)[C@H](CC(N)=O)NC(=O)[C@@H](NC(=O)[C@H](Cc1ccccc1)NC(=O)[C@H](CCC(=O)O)NC(=O)C(C)(C)NC(=O)[C@H](C)NC(=O)[C@H](C)NC(=O)[C@H](CCC(N)=O)NC(=O)[C@H](CCCCN)NC(=O)[C@H](CC(=O)O)NC(=O)[C@H](CC(C)C)NC(=O)[C@H](Cc1ccc(O)cc1)NC(=O)[C@@H](NC(=O)[C@H](CO)NC(=O)[C@H](Cc1ccc(O)cc1)NC(=O)[C@H](CC(=O)O)NC(=O)[C@H](CO)NC(=O)[C@@H](NC(=O)[C@H](Cc1ccccc1)NC(=O)[C@@H](NC(=O)CNC(=O)[C@H](CCC(=O)O)NC(=O)CSCC(=O)NCCN1CC(=O)N(C)C1=O)[C@@H](C)O)[C@@H](C)O)[C@@H](C)CC)C(C)C)C(N)=O)C(=O)O [Compound 46]
Emax (GLP-1R; Table 3, cAMP): 100%
EC50 (GLP-1R; [1]): 1 to 10 nM
Emax (GLP-1R; Table 3A, cAMP): 100%
EC50 (GLP-1R; [2]): 1 to 10 nM
Emax (GIP-R; Table 3, cAMP): 46%
EC50 (GIP-R; [3]): 1 to 10 nM
Emax (GIP-R; Table 3A, cAMP): 46%
EC50 (GIP-R; [4]): 1 to 10 nM

CCCCCCCCCCCCCCCC(=O)N[C@@H](CCC(=O)NCCCC[C@H](NC(=O)[C@H](CO)NC(=O)[C@@H]1CCCN1C(=O)[C@@H]1CCCN1C(=O)[C@@H]1CCCN1C(=O)[C@H](C)NC(=O)CNC(=O)[C@H](CO)NC(=O)[C@H](CO)NC(=O)[C@@H]1CCCN1C(=O)CNC(=O)CNC(=O)[C@H](C)NC(=O)[C@H](CC(C)C)NC(=O)[C@H](CC(C)C)NC(=O)[C@H](Cc1c[nH]c2ccccc12)NC(=O)[C@H](CC(N)=O)NC(=O)[C@@H](NC(=O)[C@H](Cc1ccccc1)NC(=O)[C@H](CCC(=O)O)NC(=O)C(C)(C)NC(=O)[C@H](C)NC(=O)[C@H](C)NC(=O)[C@H](CCC(N)=O)NC(=O)[C@H](CCCCN)NC(=O)[C@H](CC(=O)O)NC(=O)[C@H](CC(C)C)NC(=O)[C@H](Cc1ccc(O)cc1)NC(=O)[C@@H](NC(=O)[C@H](CO)NC(=O)[C@H](Cc1ccc(O)cc1)NC(=O)[C@H](CC(=O)O)NC(=O)[C@H](CO)NC(=O)[C@@H](NC(=O)[C@H](Cc1ccccc1)NC(=O)[C@@H](NC(=O)CNC(=O)[C@H](CCC(=O)O)NC(=O)CSCC(=O)NCCN1C(=O)CC[C@@H]1C)[C@@H](C)O)[C@@H](C)O)[C@@H](C)CC)C(C)C)C(N)=O)C(=O)O (single isomer, unassigned) [Compound 75]
Emax (GLP-1R; Table 3, cAMP): 99%
Emax (GLP-1R; Table 3A, cAMP): 99%
Emax (GIP-R; Table 3, cAMP): 39%
Emax (GIP-R; Table 3A, cAMP): 39%

CC[C@H](C)[C@H](NC(=O)[C@H](CO)NC(=O)[C@H](Cc1ccc(O)cc1)NC(=O)[C@H](CC(=O)O)NC(=O)[C@H](CO)NC(=O)[C@@H](NC(=O)[C@H](Cc1ccccc1)NC(=O)[C@@H](NC(=O)CNC(=O)[C@H](CCC(=O)O)NC(=O)CCCCCCCCN1C(=O)CSC1=O)[C@@H](C)O)[C@@H](C)O)C(=O)N[C@@H](Cc1ccc(O)cc1)C(=O)N[C@@H](CC(C)C)C(=O)N[C@@H](CC(=O)O)C(=O)N[C@@H](CCCCN)C(=O)N[C@@H](CCC(N)=O)C(=O)N[C@@H](C)C(=O)N[C@@H](C)C(=O)NC(C)(C)C(=O)N[C@@H](CCC(=O)O)C(=O)N[C@@H](Cc1ccccc1)C(=O)N[C@H](C(=O)N[C@@H](CC(N)=O)C(=O)N[C@@H](Cc1c[nH]c2ccccc12)C(=O)N[C@@H](CC(C)C)C(=O)N[C@@H](CC(C)C)C(=O)N[C@@H](C)C(=O)NCC(=O)NCC(=O)N1CCC[C@H]1C(=O)N[C@@H](CO)C(=O)N[C@@H](CO)C(=O)NCC(=O)N[C@@H](C)C(=O)N1CCC[C@H]1C(=O)N1CCC[C@H]1C(=O)N1CCC[C@H]1C(=O)N[C@@H](CO)C(=O)N[C@@H](CCCCN)C(N)=O)C(C)C [Compound 174]
Emax (GLP-1R; Table 3, cAMP): 17 to 73%
Emax (GLP-1R; Table 3A, cAMP): 17 to 73%
EC50 (GLP-1R; read-out: EC50 GLP-1R/nM, Table 3, cAMP): 10 to 1000 nM
EC50 (GLP-1R; read-out: EC50 GLP-1R/nM, Table 3A, cAMP): 10 to 1000 nM
EC50 (GIP-R; EC50 GIP-R/nM, Table 3, cAMP): 100 to 1000 nM
EC50 (GIP-R; EC50 GIP-R/nM, Table 3A, cAMP): 100 to 1000 nM
Emax (GIP-R; Table 3, cAMP): 30 to 66%
Emax (GIP-R; Table 3A, cAMP): 30 to 66%

CCCCCCCCCCCCCCCC(=O)N[C@@H](CCC(=O)NCCCC[C@H](NC(=O)[C@H](CO)NC(=O)[C@@H]1CCCN1C(=O)[C@@H]1CCCN1C(=O)[C@@H]1CCCN1C(=O)[C@H](C)NC(=O)CNC(=O)[C@H](CO)NC(=O)[C@H](CO)NC(=O)[C@@H]1CCCN1C(=O)CNC(=O)CNC(=O)[C@H](C)NC(=O)[C@H](CC(C)C)NC(=O)[C@H](CC(C)C)NC(=O)[C@H](Cc1c[nH]c2ccccc12)NC(=O)[C@H](CC(N)=O)NC(=O)[C@@H](NC(=O)[C@H](Cc1ccccc1)NC(=O)[C@H](CCC(=O)O)NC(=O)C(C)(C)NC(=O)[C@H](C)NC(=O)[C@H](C)NC(=O)[C@H](CCC(N)=O)NC(=O)[C@H](CCCCN)NC(=O)[C@H](CC(=O)O)NC(=O)[C@H](CC(C)C)NC(=O)[C@H](Cc1ccc(O)cc1)NC(=O)[C@@H](NC(=O)[C@H](CO)NC(=O)[C@H](Cc1ccc(O)cc1)NC(=O)[C@H](CC(=O)O)NC(=O)[C@H](CO)NC(=O)[C@@H](NC(=O)[C@H](Cc1ccccc1)NC(=O)[C@@H](NC(=O)CNC(=O)[C@H](CCC(=O)O)NC(=O)CSCC(=O)NCCN1C[C@H](O)CC1=O)[C@@H](C)O)[C@@H](C)O)[C@@H](C)CC)C(C)C)C(N)=O)C(=O)O [Compound 50]
Emax (GLP-1R; Table 3, cAMP): 103%
EC50 (GLP-1R; [1]): 0.1 to 1 nM
Emax (GLP-1R; Table 3A, cAMP): 103%
EC50 (GLP-1R; [2]): 0.1 to 1 nM
Emax (GIP-R; Table 3, cAMP): 26%
EC50 (GIP-R; [3]): 1 to 10 nM
Emax (GIP-R; Table 3A, cAMP): 26%
EC50 (GIP-R; [4]): 10 to 100 nM

CCCCCCCCCCCCCCCC(=O)N[C@@H](CCC(=O)NCCCC[C@H](NC(=O)[C@H](CO)NC(=O)[C@@H]1CCCN1C(=O)[C@@H]1CCCN1C(=O)[C@@H]1CCCN1C(=O)[C@H](C)NC(=O)CNC(=O)[C@H](CO)NC(=O)[C@H](CO)NC(=O)[C@@H]1CCCN1C(=O)CNC(=O)CNC(=O)[C@H](C)NC(=O)[C@H](CC(C)C)NC(=O)[C@H](CC(C)C)NC(=O)[C@H](Cc1c[nH]c2ccccc12)NC(=O)[C@H](CC(N)=O)NC(=O)[C@@H](NC(=O)[C@H](Cc1ccccc1)NC(=O)[C@H](CCC(=O)O)NC(=O)C(C)(C)NC(=O)[C@H](C)NC(=O)[C@H](C)NC(=O)[C@H](CCC(N)=O)NC(=O)[C@H](CCCCN)NC(=O)[C@H](CC(=O)O)NC(=O)[C@H](CC(C)C)NC(=O)[C@H](Cc1ccc(O)cc1)NC(=O)[C@@H](NC(=O)[C@H](CO)NC(=O)[C@H](Cc1ccc(O)cc1)NC(=O)[C@H](CC(=O)O)NC(=O)[C@H](CO)NC(=O)[C@@H](NC(=O)[C@H](Cc1ccccc1)NC(=O)[C@@H](NC(=O)CNC(=O)[C@H](CCC(=O)O)NC(=O)CSCC(=O)NCCN1C(=O)SC(C)C1=O)[C@@H](C)O)[C@@H](C)O)[C@@H](C)CC)C(C)C)C(N)=O)C(=O)O (mixture of isomers) [Compound 90]
EC50 (GLP-1R; EC50 GLP-1R/nM, Table 3, cAMP): 1 to 10 nM
EC50 (GLP-1R; EC50 GLP-1R/nM, Table 3A, cAMP): 1 to 10 nM
Emax (GLP-1R; Table 3, cAMP): 108%
Emax (GLP-1R; Table 3A, cAMP): 108%
EC50 (GIP-R; EC50 GIP-R/nM, Table 3, cAMP): 1 to 10 nM
EC50 (GIP-R; EC50 GIP-R/nM, Table 3A, cAMP): 1 to 10 nM
Emax (GIP-R; Table 3, cAMP): 74%
Emax (GIP-R; Table 3A, cAMP): 74%
